One compound from patent US10251902B2, “Pharmaceutical composition for treating or preventing neuropsychiatric disease, containing flavone-6-C-glucose derivatives as active ingredients” (priority 2013, dated 2019) can be followed below.

The test system of this test is model of memory impairment induced by scopolamine. The experiment in a line: Passive avoidance test in scopolamine-induced memory impairment model. Format: in vivo, ICR mice. The following applies: for Main Experiment / Passive Avoidance Learning: Table 2, scopolamine 1 mg/Kg i.p.; for Main Experiment: latency 24 h after learning, up to 300 seconds; for Passive Avoidance Learning: latency in learning trial; for latency time extended compared to that of the control 2: main experiment, control 2 = scopolamine. On the procedure:
An experiment was conducted to confirm effects of swertisin or isoorientin, and extracts of Swertia pseudochinensis or Swertia japonica containing the same prepared in Examples 1 to 3 in treating dementia by using a model of memory impairment induced by scopolamine. Detailed method follows.
Six-week old ICR mice in about 26 g to 28 g (Orientbio Inc, Republic of Korea) were received water and feed without constraint and adapted for 5 days under an environment having about 23±1° C. of temperature, about 60±10% of humidity and 12-hour light/dark cycle (animal laboratory at College of Pharmacy, Kyung-Hee University), and then used for the experiment.
An apparatus for measuring passive avoidance reaction was prepared. The apparatus has 2 separated chambers (the first and second chambers) and there is a guillotine-shaped passage that connects the first chamber and the second chamber. The first chamber was maintained brightly by using a light, and the second chamber was maintained darkly. A grid was installed on the floor of the second chamber. The grid generates 0.5 mA of electric shock for 3 seconds when the laboratory animal moved into the dark chamber.
About 30 minutes later, 1 mg/Kg of scopolamine, which was dissolved in distilled water, was intraperitoneally administered to the drug administration groups 1 to 4 and controls 1 and 2 (Ebert, U. et al., Eur. J. Clin. Invest., 28, pp 944-949, 1998), and 0.9% of saline solution was intraperitoneally administered to the control 3. After 30 minutes, passive avoidance learning was conducted on the drug administration groups 1-4 and controls 1-3. In detail, the mice were located in the first chamber (i.e. bright space) and the passage was open after about 20 seconds of observation time, and then latency time of the mice moving to the second chamber (i.e. dark space) was measured.
Twenty-four hours after the passive avoidance learning, a main experiment was conducted on the drug administration groups 1-4 and controls 1-3. Latency time of the mice of each group moving their 4 legs into the dark space after 10 seconds of observation time from opening of the guillotine-shaped passage was measured up to 300 seconds. It means that the passive avoidance learning and memory are better if the latency time is longer.
The passive avoidance test was conducted on the drug administration groups 1-4 and controls 1-3 in the same manner as the method explained above except that swertisin, which is one of the flavone-6-C-β-D-glucose derivatives prepared in Example 3, was dissolved in 10% Tween 80 and administered to the drug administration groups 1-4 in amounts of 1.25 mg/kg, 2.5 mg/kg, 5 mg/kg and 10 mg/kg respectively.
The passive avoidance test was conducted on the drug administration groups 1-4 and controls 1-3 in the same manner as Experimental Example 1-1 except that isoorientin, which is one of the flavone-6-C-β-D-glucose derivatives prepared in Example 3, was dissolved in 10% Tween 80 and administered to the drug administration groups 1-4 in amounts of 1.25 mg/kg, 2.5 mg/kg, 5 mg/kg and 10 mg/kg respectively.
The passive avoidance test was conducted on the drug administration groups 1-3 and controls 1-3 in the same manner as Experimental Example 1-1 except that a 70% ethanol extract of Swertia japonica prepared in Example 1, was dissolved in 10% Tween and administered to the drug administration groups 1-3 in amounts of 100 mg/kg, 200 mg/kg and 400 mg/kg respectively.
The passive avoidance test was conducted on the drug administration groups 1-3 and controls 1-3 in the same manner as Experimental Example 1-1 except that a 70% ethanol extract of Swertia pseudochinensis prepared in Example 2, was dissolved in 10% Tween 80 and administered to the drug administration groups 1-3 in amounts of 100 mg/kg, 200 mg/kg and 400 mg/kg respectively.

`COc1cc2oc(-c3ccc(O)cc3)cc(=O)c2c(O)c1[C@@H]1O[C@H](CO)[C@@H](O)[C@H](O)[C@H]1O` [swertisin]: the “Main Experiment” value is, setting by setting: (swertisin 1.25 mg/kg) 67.13 ± 26.08 s; (swertisin 2.5 mg/kg) 82.11 ± 35.20 s; (swertisin 5 mg/kg) 117.3 ± 44.16 s; (swertisin 10 mg/kg) 117.7 ± 52.28 s. For the same compound, the “Passive Avoidance Learning” value (swertisin 1.25 mg/kg) stood at 30.20 ± 14.53 s, the “Passive Avoidance Learning” value (swertisin 2.5 mg/kg) amounted to 19.10 ± 10.37 s, the “Passive Avoidance Learning” value (swertisin 5 mg/kg) amounted to 20.40 ± 10.11 s and the “Passive Avoidance Learning” value (swertisin 10 mg/kg) was found to be 29.70 ± 18.76 s. For the same compound, the “latency time extended compared to that of the control 2” value is recorded as “about 2 fold” (swertisin 1.25 mg/Kg), “about 2.5 fold” (swertisin 2.5 mg/Kg), “about 3 fold” (swertisin 5 mg/Kg) and “about 3 fold” (swertisin 10 mg/Kg).
